From ChEMBL document CHEMBL1201862, “PubChem BioAssay data set” (2004)
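Dose response: 5 concentrations. Exposure: 48 h. Format: 96-well plates. Endpoint: linear interpolation; highest concentration if not reached. GI50 marks 50% less growth.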 Calls of active or inactive are those of the source. Cut-off read from the data, not from the text of the source: active = GI50 up to about 1.1 µM and inactive = higher.

How the values were obtained:
Assay in all cases: inhibition of tumour cell growth, NCI panel, 48 h
KM12 = system: KM12
ACHN = system: ACHN
SNB-78 = system: SNB-78
DMS-114 = system: DMS-114
CCRF-CEM = system: CCRF-CEM
NCI-H23 = system: NCI-H23
XF498 = system: XF498
SF-295 = system: SF-295
NCI-H460 = system: NCI-H460
NCI-H226 = system: NCI-H226
DLD-1 = system: DLD-1
SF-539 = system: SF-539
HT-29 = system: HT-29
LOX IMVI = system: LOX IMVI
SF-268 = system: SF-268
SK-MEL-5 = system: SK-MEL-5
DMS-273 = system: DMS-273
MOLT-4 = system: MOLT-4
UACC-257 = system: UACC-257
K562 = system: K562

Measured: GI50

O=C1NP23(OCCO2)Oc2ccccc2C3(C(F)(F)F)O1 (stereo not given)
inactive: KM12 > 100 µM | ACHN > 100 µM | SNB-78 > 100 µM | DMS-114 > 100 µM | CCRF-CEM > 100 µM | NCI-H23 > 100 µM | XF498 > 100 µM | SF-295 > 100 µM | NCI-H460 78.3 µM | NCI-H226 > 100 µM | DLD-1 > 100 µM | SF-539 > 100 µM | HT-29 > 100 µM | LOX IMVI > 100 µM | SF-268 > 100 µM | SK-MEL-5 > 100 µM | DMS-273 > 100 µM | MOLT-4 > 100 µM | UACC-257 > 100 µM | K562 > 100 µM
